The source of these data is patent US8778923B2, “GLP-1 receptor modulators” (Receptos, Inc., priority 2011, dated 2014).

Where a name gives a salt, the structure may show the parent alone.

The target in the experiment is T1, GLP-1R (Homo sapiens, UniProt P43220).
T1 construct: host or cells: CRE-bla CHO-K1
T1 sequence (P43220 24-463): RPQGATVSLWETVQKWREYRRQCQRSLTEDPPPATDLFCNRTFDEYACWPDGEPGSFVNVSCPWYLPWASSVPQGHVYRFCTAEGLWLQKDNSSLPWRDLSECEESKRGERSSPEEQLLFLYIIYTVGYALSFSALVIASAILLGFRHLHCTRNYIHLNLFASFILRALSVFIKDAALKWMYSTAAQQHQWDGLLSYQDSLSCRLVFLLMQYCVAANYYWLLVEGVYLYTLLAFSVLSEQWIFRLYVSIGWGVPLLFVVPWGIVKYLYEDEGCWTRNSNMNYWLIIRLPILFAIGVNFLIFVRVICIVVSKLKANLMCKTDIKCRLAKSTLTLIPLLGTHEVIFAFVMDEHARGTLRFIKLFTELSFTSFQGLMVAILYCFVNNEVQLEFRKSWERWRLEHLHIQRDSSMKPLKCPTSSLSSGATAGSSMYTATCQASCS
T1 sequence (P01275 100-127 partner limits assumed): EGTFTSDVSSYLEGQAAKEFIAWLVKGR
Kind of experiment: EC20 GLP-1(9-36) PAM cAMP assay: dose response of compound in the presence of fixed concentration of GLP-1(9-36). It is filed as cell-based. The settings on record: GLP-1R CRE-bla CHO-K1 cells, compound dose response in presence of fixed concentration of GLP-1(9-36). The method, boiled down: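 Positive allosteric modulation read as cAMP rise: 12-point compound titration combined with a fixed EC20 level of GLP-1(9-36) on GLP-1R CHO-K1 cells, IBMX present, 30 min at 37 °C. Luminescent HitHunter signal converted to cAMP; nonlinear fit gave EC50 and Emax.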
In the case of `CC(C)(C)c1ccc(C(=O)N[C@@H](Cc2ccc(-c3ncc(-c4ccc5ccccc5c4)cn3)cc2)C(=O)O)s1` [Compound 245], the EC50 fell in the range of 800 to 2500 nM.

With `Cc1ccc(-c2ccc(-c3cnc(-c4ccc(C[C@H](NC(=O)c5ccc(C(C)(C)C)s5)C(=O)O)cc4)nc3)cc2)cc1` [Compound 246], the EC50 is 800 to 2500 nM.

With `Cc1cccc(-c2ccc(-c3cnc(-c4ccc(C[C@H](NC(=O)c5ccc(C(C)(C)C)s5)C(=O)O)cc4)nc3)cc2)c1` [Compound 247], the EC50 lay in the range of 800 to 2500 nM.

Turning to `CCCCCCCCCCOc1ccc(-c2cnc(-c3ccc(C[C@H](NC(=O)c4ccc(C(C)(C)C)s4)C(=O)O)cc3)nc2)cc1` [Compound 249, (S)-2-(5-(tert-butyl)thiophene-2-carboxamido)-3-(4-(5-(4-(decyloxy)phenyl)-pyrimidin-2-yl)phenyl)propanoic acid], the EC50 fell in the range of 5000 to 10000 nM.

As for `CCCCCCCCCCCCOc1ccc(-c2cnc(-c3ccc(C[C@H](NC(=O)c4ccc(C(C)(C)C)s4)C(=O)O)cc3)nc2)cc1` [Compound 250], the EC50 lay within 800 to 2500 nM.

`CCCCCCCCCCCCCCOc1ccc(-c2cnc(-c3ccc(C[C@H](NC(=O)c4ccc(C(C)(C)C)s4)C(=O)O)cc3)nc2)cc1` [Compound 251]: the EC50 was in the range of 5000 to 10000 nM.

Regarding `CCCCCCCCCCCCCCCCOc1ccc(-c2cnc(-c3ccc(C[C@H](NC(=O)c4ccc(C(C)(C)C)s4)C(=O)O)cc3)nc2)cc1` [Compound 252], the half-maximal effective concentration (EC50) fell in the range of 5000 to 10000 nM.

Take `CC(C)(C)c1ccc(C(=O)N[C@@H](Cc2ccc(-c3ncc(N4CCC(C(C)(C)C)CC4)cn3)cc2)C(=O)O)cc1` [Compound 253, (S)-2-(4-(tert-butyl)benzamido)-3-(4-(5-(4-(tert-butyl)piperidin-1-yl)pyrimidin-2-yl)phenyl)propanoic acid]: the EC50 was in the range of 2500 to 5000 nM.

Regarding `CCCCCCCN1CCN(c2cnc(-c3ccc(C[C@H](NC(=O)c4ccc(C(C)(C)C)cc4)C(=O)O)cc3)nc2)CC1` [Compound 254], the EC50 was 800 to 2500 nM.

As to `CCCCCCCn1nnnc1-c1cnc(-c2ccc(C[C@H](NC(=O)c3ccc(C(C)(C)C)cc3)C(=O)O)cc2)nc1` [Compound 255], the EC50 lay within 5000 to 10000 nM.

For `CCCCCCOC1=NCc2cc(-c3cnc(-c4ccc(C[C@H](NC(=O)c5ccc(C(C)(C)C)cc5)C(=O)O)cc4)nc3)ccc21` [Compound 256], the EC50 is 5000 to 10000 nM.

On to `CCCCCCOc1ccc(-c2cnc(-c3ccc(C[C@H](NC(=O)c4ccc(C(C)(C)C)cc4)C(=O)O)cc3)nc2)cn1` [Compound 257], for which the EC50 fell in the range of 800 to 2500 nM.

In the case of `CC(C)(C)c1ccc(C(=O)N[C@@H](Cc2ccc(-c3ncc(OCc4ccccc4)cn3)cc2)C(=O)O)cc1` [Compound 258], the EC50 lay within 5000 to 10000 nM.

With `CCCCCCCCOc1ccc(-c2cnc(-c3ccc(C[C@H](NC(=O)c4ccc(C(C)(C)C)s4)C(=O)O)cc3)nc2)cc1` [Compound 259], the concentration giving a half-maximal response (EC50) lay within 800 to 2500 nM.

For `CCCCCCCCCOc1ccc(-c2cnc(-c3ccc(C[C@H](NC(=O)c4ccc(C(C)(C)C)s4)C(=O)O)cc3)nc2)cc1` [Compound 260], the EC50 was below 800 nM.

On to `CCCCCCCOc1ccc(N2CCN(c3ccc(C[C@H](NC(=O)c4ccc(C(C)(C)C)cc4)C(=O)O)cc3)CC2=O)cc1` [Compound 261], for which the EC50 was 2500 to 5000 nM.

For `CCCCCCCOc1ccc(N2CCN(c3ccc(C[C@H](NC(=O)c4ccc(C(C)(C)C)s4)C(=O)O)cc3)C2=O)cc1` [Compound 262], the EC50 lay in the range of 2500 to 5000 nM.

With `CCCCCCCOc1ccc(N2CCC(Nc3ccc(C[C@H](NC(=O)c4ccc(C(C)(C)C)cc4)C(=O)O)cc3)CC2)cc1` [Compound 263], the EC50 is 800 to 2500 nM.

With `CCCCCCCOc1ccc(C2CCN(c3ccc(C[C@H](NC(=O)c4ccc(C(C)(C)C)cc4)C(=O)O)cc3)CC2)cc1` [Compound 264], the EC50 was in the range of 800 to 2500 nM.

As to `CCCCCCCOc1ccc(C2CCN(c3ccc(C[C@H](NC(=O)c4ccc(C(C)(C)C)cc4)C(=O)O)cc3)C2)cc1` (some centres unmarked) [Compound 265], the EC50 lay in the range of 5000 to 10000 nM.

For the compound `CC(C)(C)c1ccc(C(=O)N[C@@H](Cc2ccc(N3CCN(c4ccc(-c5ccccc5)cc4)CC3)cc2)C(=O)O)cc1` [Compound 266], the EC50 was 5000 to 10000 nM.

For `CCCCCCCOc1ccc(N2CCN(c3ccc(C[C@H](NC(=O)c4ccc(C(C)(C)C)cc4)C(=O)O)cc3)CC2)cc1` [Compound 267], the EC50 lay in the range of 800 to 2500 nM.

As for `CCCCCCCOc1ccc(N2CCCN(c3ccc(C[C@H](NC(=O)c4ccc(C(C)(C)C)cc4)C(=O)O)cc3)CC2)cc1` [Compound 268], the half-maximal effective concentration (EC50) was 800 to 2500 nM.

For the compound `CCCCCCCOc1ccc(-c2ccc(-c3ccc(C[C@H](NC(=O)c4ccc(C(C)(C)C)cc4)C(=O)O)cc3)nc2)cc1` [Compound 269], the EC50 is 800 to 2500 nM.

`CCCCCCCOc1ccc(-c2ncc(-c3ccc(C[C@H](NC(=O)c4ccc(C(C)(C)C)cc4)C(=O)O)cc3)cn2)cc1` [Compound 271]: the EC50 is 800 to 2500 nM.

With `CCCCCCCOc1ccc(-c2cnc(-c3ccc(C[C@H](NC(=O)c4ccc(C(C)(C)C)cc4)C(=O)O)cc3)cn2)cc1` [Compound 272], the EC50 was in the range of 800 to 2500 nM.

Consider `CCCCCCCOc1ccc(-c2cnc(-c3ccc(C[C@H](NC(=O)c4ccc(C(C)(C)C)cc4)C(=O)O)cc3)nn2)cc1` [Compound 274], for which the EC50 was 800 to 2500 nM.

Turning to `CCCCCCCOc1ccc(-c2cnc(-c3ccc(C[C@H](NC(=O)c4ccc(C(C)(C)C)cc4)C(=O)NCC(=O)O)cc3)nn2)cc1` [Compound 276], the EC50 was in the range of 800 to 2500 nM.

For `CCCCCCCOc1ccc(-c2ccc(-c3ccc(C[C@H](NC(=O)c4ccc(C(C)(C)C)s4)C(=O)O)cc3)nc2)cc1` [Compound 277], the EC50 is below 800 nM.

`CC(C)(C)c1ccc(-c2ccc(-c3ccc(C[C@H](NC(=O)c4ccc(C(C)(C)C)s4)C(=O)O)cc3)nc2)cc1` [Compound 278]: the EC50 is 2500 to 5000 nM.

`CCCCCCCOc1ccc(-c2ccc(-c3ccc(C[C@H](NC(=O)c4ccc(C(C)(C)C)s4)C(=O)O)cc3)nn2)cc1` [Compound 279]: the EC50 was in the range of 5000 to 10000 nM.

With `CC(C)(C)c1ccc(-c2ccc(-c3ccc(C[C@H](NC(=O)c4ccc(C(C)(C)C)s4)C(=O)O)cc3)nn2)cc1` [Compound 280], the EC50 lay within 2500 to 5000 nM.

Turning to `CCCCCCCOc1ccc(-c2cnc(-c3ccc(C[C@H](NC(=O)c4ccc(C(C)(C)C)s4)C(=O)O)cc3)cn2)cc1` [Compound 281], the EC50 is below 800 nM.

For `CC(C)(C)c1ccc(-c2cnc(-c3ccc(C[C@H](NC(=O)c4ccc(C(C)(C)C)s4)C(=O)O)cc3)cn2)cc1` [Compound 282], the EC50 is 800 to 2500 nM.

In the case of `CCCCCCCOc1ccc(-c2ccc(-c3ccc(C[C@H](NC(=O)c4ccc(C(C)(C)C)s4)C(=O)NCC(=O)O)cc3)nn2)cc1` [Compound 283], the EC50 lay in the range of 5000 to 10000 nM.

Consider `CCCCCCCOc1ccc(-c2cnc(-c3ccc(C[C@H](NC(=O)c4ccc(C(C)(C)C)s4)C(=O)NCC(=O)O)cc3)cn2)cc1` [Compound 284], for which the EC50 was 800 to 2500 nM.

As for `CCCCCCCOc1ccc(-c2ccc(-c3ccc(C[C@H](NC(=O)c4ccc(C(C)(C)C)s4)C(=O)NCC(=O)O)cc3)nc2)cc1` [Compound 285], the EC50 was in the range of 800 to 2500 nM.

As for `CCCCCCCOc1ccc(-c2c[nH]c(-c3ccc(C[C@H](NC(=O)c4ccc(C(C)(C)C)cc4)C(=O)O)cc3)n2)cc1` [Compound 286, (S)-2-(4-(tert-butyl)benzamido)-3-(4-(4-(4-(heptyloxy)phenyl)-1H-imidazol-2-yl)phenyl)propanoic acid hydrochloride], the EC50 fell in the range of 2500 to 5000 nM.

For `CCCCCCCOc1ccc(-n2cnc(-c3ccc(C[C@H](NC(=O)c4ccc(C(C)(C)C)cc4)C(=O)O)cc3)c2)cc1` [Compound 287, (S)-2-(4-(tert-butyl)benzamido)-3-(4-(1-(4-(heptyloxy)phenyl)-1H-imidazol-4-yl)phenyl)propanoic acid], the EC50 was in the range of 5000 to 10000 nM.

Take `Cc1ccc(-c2ccc(-n3cc(-c4ccc(C[C@H](NC(=O)c5ccc(C(C)(C)C)cc5)C(=O)O)cc4)cn3)cc2)cc1` [Compound 288, (S)-2-(4-(tert-butyl)benzamido)-3-(4-(1-(4′-methyl-[1,1′-biphenyl]-4-yl)-1H-pyrazol-4-yl)phenyl)propanoic acid]: the EC50 is 2500 to 5000 nM.

`CCCCCCCOc1ccc(-c2cnc(-c3ccc(C[C@@H](CC(=O)O)NC(=O)c4ccc(C(C)(C)C)cc4)cc3)nc2)cc1` [Compound 291, (S)-3-(4-(tert-butyl)benzamido)-4-(4-(5-(4-(heptyloxy)phenyl)pyrimidin-2-yl)phenyl)butanoic acid]: the EC50 was in the range of 800 to 2500 nM.

For `CCCCCCCOc1ccc(-c2cnc(-c3ccc(C[C@H](NC(=O)c4ccc(C(C)(C)C)cc4)C(=O)O)cc3)nc2OC)cc1` [Compound 292, (S)-2-(4-(tert-butyl)benzamido)-3-(4-(5-(4-(heptyloxy)phenyl)-4-methoxypyrimidin-2-yl)phenyl)propanoic acid], the EC50 is 800 to 2500 nM.

With `CCCCCCCOc1ccc(-c2cnc(-c3ccc(C[C@H](NC(=O)c4ccc(C(C)(C)C)cc4)C(=O)O)cc3)nc2N(C)C)cc1` [Compound 293], the EC50 is 2500 to 5000 nM.

As to `CCCCCCCOc1ccc(-c2cnc(-c3ccc(C[C@H](NC(=O)c4ccc(C(C)(C)C)cc4)C(=O)O)cc3)cc2C)cc1` [Compound 294], the EC50 is 800 to 2500 nM.

For the compound `CCCCCCCOc1ccc(-c2cnc(-c3ccc(C[C@H](NC(=O)c4ccc(C(C)(C)C)cc4)C(=O)O)cc3)cc2C(F)(F)F)cc1` [Compound 295], the EC50 fell in the range of 800 to 2500 nM.

On to `CCCCCCCOc1ccc(-c2cnc(-c3ccc(C[C@H](NC(=O)c4coc(C(C)(C)C)n4)C(=O)O)cc3)nc2)cc1` [Compound 296], for which the EC50 fell in the range of 800 to 2500 nM.

For the compound `CCCCCCCOc1ccc(-c2cnc(-c3ccc(C[C@H](NC(=O)c4ccc(C(C)(C)C)cc4)C(=O)NCC(=O)O)cc3)nc2)cc1` [Compound 297, (S)-(2-(4-(tert-butyl)benzamido)-3-(4-(5-(4-(heptyloxy)phenyl)pyrimidin-2-yl)phenyl)propanoyl)glycine], the EC50 was below 800 nM.
